In patent US8455468B2, “Methods for the treatment of a traumatic central nervous system injury” (priority 2005, dated 2013):

Columns and labels:
[1] = system: acute TBI
Procedure: This phase II, randomized, double blind, placebo-controlled clinical trial was conducted at an urban, level I trauma center. 100 adults presenting within 11 hours of a blunt TBI with a Glasgow Coma Scale score of 4-12 were enrolled with proxy consent. […] Blinded observers closely monitored patients for the occurrence of adverse events, and initial functional outcomes were assessed 30 days post-injury. The primary safety outcome was difference in adverse event rates, including mortality. The primary measure of activity was dichotomized Glasgow outcome scale extended (GOSE) 30 days post injury.
We also hoped to detect signals of activity.
According to the U.S. Food and Drug Administration, an “adverse event” is any undesirable medical event occurring to a subject in a clinical trial, whether or not related to the study drug. This includes events not seen at baseline, or worsened if present at baseline. “Serious adverse events” are defined as death, immediate risk of death, or suspicion that use or continued use would result in the patient's death, prolongation of existing hospitalization, persistent or significant disability/incapacity, or a congenital anomaly/birth defect.
These included any thromboembolic event (deep vein thrombosis, thrombophlebitis, ischemic myocardial infarction, pulmonary embolism, stroke or transient ischemic attack), elevated liver enzymes, temperature elevation, allergic reactions, and hyperglycemia. […] An independent internal safety monitor made the determination if an adverse event was associated with study treatment. Both the FDA and an independent NIH-appointed data safety monitoring board independently reviewed these determinations.
Interventions: Following proxy consent, patients were placed in one of 8 clinical subgroups defined by gender (male versus female), race (black versus all others) and TBI severity (moderate versus severe). […] This asymmetric approach was adopted at the request of our NIH-appointed DSMB to maximize the number of patients receiving study drug while maintaining blinding.
Whenever a patient was enrolled, the next kit in sequence for that subgroup was used to prepare infusions. […] The remaining vials were used to prepare 5 subsequent 12-hour infusions at the same standard rate of 10 mls/hour for a total of 3 days of treatment. Details of drug monitoring are reported elsewhere (Wright et al. (2005) J Clin Pharmacol 45(6):640-648).
Methods of Measurement: To assess drug safety, study personnel rounded daily to document the occurrence of adverse events (AEs) or serious adverse events (SAES). Hourly vital signs (blood pressure, heart rate, respiratory rate, temperature, and pulse oximetry), intracranial pressure readings, and other parameters (mean arterial pressure, cerebral perfusion pressure, and fluid balance), were abstracted from each patient's chart. Laboratory values were obtained from the hospital's information system, and concomitant medications and interventions were noted.
Whenever an SAE occurred, an independent board-certified neurosurgeon assessed its potential relationship to study treatment using pre-defined scale. SAEs were reported within 24 hours to the Institutional Review Board (IRB), our NIH-appointed Data Safety Monitoring Board (DSMB), and the U.S. Food and Drug Administration. All other adverse events were reported to on a weekly basis.
Primary Data Analysis—Treatment and placebo groups were compared with respect to a variety of demographic, historical and prehospital characteristics to ensure that important independent predictors of outcome were equally distributed. Next, the groups were compared with respect to rates of adverse and serious adverse events, using Fisher's exact test.

[2] = system: moderate to severe TBI; assay: Pilot phase II randomized double-blind trial of progesterone for traumatic brain injury, preliminary evaluation (Example 2); assay type: in vivo, human
Procedure: The administration protocol was carried out was described above in Example 1.
To determine if a therapeutic response was achieved, the following endpoints were monitored: • ICP reduction determined by calculating “therapeutic intensity level” (ICP-TIL); • duration of coma (injury to awaking); • mortality one-month post injury; • neurological outcome 1 month and 1 year post-injury, as determined by Glasgow outcome scale (GOS), Disability rating scale (DRS) and Galveston orientation and amnesia test (GOAT).
The administration protocol and pharmaceutical composition administered are described in detail in Example 1. Follow up regarding condition occurred at 30 days and 1 year.

[3] = system: acute TBI; assay: Phase II ProTECT trial: physiological parameters during infusion; assay type: in vivo, human
Description: Primary Data Analysis—Treatment and placebo groups were compared with respect to a variety of demographic, historical and prehospital characteristics to ensure that important independent predictors of outcome were equally distributed. Next, the groups were compared with respect to rates of adverse and serious adverse events, using Fisher's exact test. Generalized linear model analysis using a negative binomial distribution was used to compare rates of events that occurred multiple times per patient within the first 30 days (McCullagh and Nelder (1989) Generalized Linear Models (2nd ed, Chapman & Hill)). Then, group specific differences in 30-day outcomes. Fisher's exact test was used to analyze GOSE scores dichotomized into “good or moderate recovery” versus all other levels. Wilcoxon's rank sum test was used to compare group specific DRS scores. Mean and median durations of coma and post-traumatic amnesia were compared using student's t-test. All analyses were stratified on an a priori basis by brain injury severity (iGCS 4-8 (severe) versus iGCS 9-12 (moderate)). Longitudinal mixed effects models were used to analyze ICP-TIL as well as other hourly or daily clinical measurements from enrollment through treatment day 4.

[4] = Stability of progesterone solutions (HPLC-UV); assay type: physicochemical
Description: For all stability testing, the method of […], et al. was used with minor modifications ([…], et al. (1999) Journal of Pharmaceutical & Biomedical Analysis, 19(5):803-8). The method was originally validated to assess the stability of medroxyprogesterone acetate and estradiol valerate tablets. It is an isocratic HPLC-UV method utilizing external standardization. A 5 micron, 4.6×250 mm BDS-Hypersil C-18 column (Keystone Scientific) was used and the analyses were completed on an Agilent 1100 model HPLC system with photodiode array detector. The mobile phase consisted of 40% 0.07M ammonium acetate buffer, pH 7.2 and 60% acetonitrile. Detection was at […]. […] Reproducibility as assessed by 10 injections of the same preparation on multiple different days was always less that 10%. […] A five point standard curve was run with each analysis.

[5] = system: acute TBI; assay: Phase II ProTECT trial: outcome variables 30 days post injury; assay type: in vivo, human
Description: In addition to monitoring subjects for signs of harm, we hoped to detect signals of activity. […] For this preliminary study, our primary outcome of interest was Glasgow Outcome Scale Extended (GOSE) 30 days post-injury. […] Thirty days following each injury event, we assessed each patient's Glasgow Outcome Score Extended (GOSE) and Disability Rating Scale (DRS). Patients who were severely impaired were classified as “not testable”-a surrogate marker for a poor outcome. Reliability codes were used to record reasons for non-administration of a particular measure, such as physical impairment (e.g., hemiparesis) cognitive impairment (e.g., could not understand instructions), or intoxication. One-year outcomes will be reported at a later date. […] Our secondary aim was to look for signs of drug activity by assessing several measures of outcome. Our a priori primary measure of outcome was the Glasgow Outcome Scale-Extended ([…] et al. (1998) Journal of Neurotrauma 15(8):587-597). […] (1987) Journal of Neurosurgery 67(6):832-840) and 5) the Disability Rating Scale (DRS) (Hall et al. […] Variables determined to be independently associated with all-cause mortality or CNS related-death, such as iGCS (dichotomized into moderate versus severe), injury severity score and Marshall CT score were incorporated in a stepwise logistic regression analyses. […]

[6] = clinical; conditions: human, in vivo
Procedure: Multiple blood samples were obtained from 11 female and 21 male trauma patients receiving PG and 1 female and 3 male patients receiving placebo infusions for 72 h. Values for CSS, CL, t1/2 and Vd were obtained using AUC(0-72) and post-infusion blood samples.
This study was approved by the Institutional Review Board of Emory University, the Drug Safety Monitoring Board (NINDS) and the FDA (IND #58,986). After obtaining informed consent, thirty-six patients meeting the inclusion criteria outlined as follows were studied. […] Inclusion criteria required that each patient be ≧18 years old, have a closed head injury arising from blunt trauma, have a moderate to severe brain injury (Index Glasgow Coma Score (GCS) 4-12) and arrive in the Emergency Department and obtain informed consent (from next-of-kin) in less than 11 hours post injury.
Aliquots of each solution were assayed for final concentration and sterility. […] Each kit contained six vials. […] The placebo kits were also formulated with 95% ethanol. Because of the alcohol concentration, doses of study drug were mixed with Intralipid® immediately prior to infusion. Each infusion dose was administered over 12 hours and repeated every 12 hours for a total of 72 hours. […] The dosing worksheet was also used to calculate the volume of study medication to be diluted in Intralipid® for each of the remaining infusion reservoirs at a standard rate of 10 cc/hr.
Nine (5 ml) samples were obtained at the following times during the infusion: pre-infusion (0), 4, 6, 12, 24, 36, 48, 60, and 72 hours. An additional five samples were obtained following cessation of infusion at: 0.5, 1, 2, 4 and 8 hours. Samples were allowed to clot, and then centrifuged. After that, the serum was removed and stored at −70° C. until analyzed.
The primary pharmacokinetic parameter, CL, was estimated as the ratio of the dose to area under the serum concentration-time curve (AUC). AUC's were calculated using the linear trapezoidal rule (Veng-Pedersen (1989) Clin Pharmacokinet, 17(6):424-40). The elimination phase rate constant, ke, was calculated from the serum concentration-time data following the termination of the infusion using iterative non-linear regression (WinNonlin®, Pharsight Corporation, Mountain View, Calif.). Volume of Distribution was estimated as the ratio of CL and ke. Css was estimated as the ratio of Dose and CL. Actual Css was defined as the concentration achieved when the slope of the serum concentration-time curve for three or more consecutive samples was not different from zero.
Predicted Css concentrations were calculated as the ratio of the infusion rate/clearance. Differences between predicted and measured Css were made using a ‘t’ test for repeated measures. A Bland-Altman analysis was conducted to assess the magnitude of any bias associated with this approach (Bland and Altman (1986) Lancet, 1(8476):307-10). Pharmacokinetic parameter comparisons between male and female were accomplished using a ‘t’ test for independent means. A p value of less than 0.05 was considered the minimum level for rejection of the null hypothesis.

[7] = Solubility of progesterone in carrier; assay type: physicochemical

CC(=O)[C@H]1CC[C@H]2[C@@H]3CCC4=CC(=O)CC[C@]4(C)[C@H]3CC[C@]12C [progesterone, pregn-4-ene-3,20-dione]
Death within 30 days ([1]; 30-day adverse event rate): 13.0%
Acute respiratory distress syndrome ([1]; both, human, in vivo, 30 days): 2.6%
Cardiac Arrhythmia ([1]; both, human, in vivo, 30 days): 5.2%
Central nervous system infection ([1]; both, human, in vivo, 30 days): 1.3%
Cholestatic Jaundice ([1]; both, human, in vivo, 30 days): 6.5%
Fever ([1]; both, human, in vivo, 30 days): 70.1%
Gastrointestinal Bleed ([1]; both, human, in vivo, 30 days): 5.2%
Hyperglycemia-non DM ([1]; both, human, in vivo, 30 days): 27.3%
Hypertension ([1]; both, human, in vivo, 30 days): 11.7%
Hypotension ([1]; both, human, in vivo, 30 days): 9.1%
Hypothermia ([1]; both, human, in vivo, 30 days): 5.2%
Hypoxemia ([1]; both, human, in vivo, 30 days): 11.7%
Increase Liver Enzyme ([1]; both, human, in vivo, 30 days): 6.5%
Phlebitis at Injection Site ([1]; both, human, in vivo, 30 days): 1.3%
Rash or Hives ([1]; both, human, in vivo, 30 days): 2.6%
Seizures ([1]; both, human, in vivo, 30 days): 5.2%
Sepsis ([1]; both, human, in vivo, 30 days): 2.6%
Shock ([1]; both, human, in vivo, 30 days): 2.6%
Suspected Pneumonia ([1]; both, human, in vivo, 30 days): 11.7%
Syndrome of inappropriate ADH ([1]; both, human, in vivo, 30 days): 1.3%
Tachycardia ([1]; both, human, in vivo, 30 days): 24.7%
Thromboembolic Disease ([1]; both, human, in vivo, 30 days): 3.9%
adverse events specifically ascribed to administration ([1]; in vivo): two cases of superficial phlebitis at the IV site
deep vein thrombosis ([1]; in vivo): Three patients
rise in mean temperature over the infusion interval, treatment by time interaction slope ([1]; in vivo): −0.0055
serious adverse events attributed to study drug ([1]; in vivo): No serious adverse events were attributed to progesterone
reduction in brain deaths ([2]; vs control): 60%
proportion of subjects experiencing brain death ([2]; vs group B, p=0.0295 Fisher's exact test): significantly lower proportion
mean intracranial pressure levels (ICPs) trend ([3]; first 4 days post-injury, subjects with monitors, not statistically significant): remained stable
Mean Duration of Pressures Exceeding Threshold Values: CPP < 60 ([3]; in vivo): 6.9 h
Mean Duration of Pressures Exceeding Threshold Values: ICP > 25 ([3]; in vivo): 5.0 h
Mean Duration of Pressures Exceeding Threshold Values: MAP < 70 ([3]; in vivo): 2.5 h
Mean Duration of Pressures Exceeding Threshold Values: Systolic BP < 90 ([3]; in vivo): 2.7 h
Mean Frequency of Pressures Exceeding Threshold Values: CPP < 60, Rate/1000 consecutive readings ([3]; in vivo): 92.9
Mean Frequency of Pressures Exceeding Threshold Values: ICP > 25, Rate/1000 consecutive readings ([3]; in vivo): 70.2
Mean Frequency of Pressures Exceeding Threshold Values: MAP < 70, Rate/1000 consecutive readings ([3]; in vivo): 29.5
Mean Frequency of Pressures Exceeding Threshold Values: Systolic BP < 90, Rate/1000 consecutive readings ([3]; in vivo): 32.1
Percent of Patients with Clinical Values Exceeding the Threshold: CPP < 60 ([3]; in vivo): 48.7%
Percent of Patients with Clinical Values Exceeding the Threshold: ICP > 25 ([3]; in vivo): 32.4%
Percent of Patients with Clinical Values Exceeding the Threshold: MAP < 70 ([3]; in vivo): 29.0%
Percent of Patients with Clinical Values Exceeding the Threshold: Systolic BP < 90 ([3]; in vivo): 29.0%
Cerebral Perfusion Pressure, mean ([3]; infusion day 0): 70.3 mmHg
Cerebral Perfusion Pressure, mean ([3]; infusion day 1): 73.4 mmHg
Fluid Balance, mean ([3]; infusion day 1): 767.9 + mls
Cerebral Perfusion Pressure, mean ([3]; infusion day 2): 75.9 mmHg
Fluid Balance, mean ([3]; infusion day 2): 1189.5 + mls
Cerebral Perfusion Pressure, mean ([3]; infusion day 3): 74.9 mmHg
Fluid Balance, mean ([3]; infusion day 3): 802.0 + mls
Cerebral Perfusion Pressure, mean ([3]; infusion day 4): 73.8 mmHg
Fluid Balance, mean ([3]; infusion day 4): 818.7 + mls
stability of Intralipid solutions containing progesterone in 95% ethyl alcohol [4]: ≥ 24 h
stability of solution of progesterone in 95% ethyl alcohol ([4]; room temperature): up to 2 years
Disability Rating Score: Total DRS, mean ([5]; Index GCS = 9-12): 5
DRS scores vs placebo ([5]; moderately brain-injured patients): significantly better DRS scores
maintenance infusion rate to achieve target concentration of 450±100 ng/mL ([6]; both): approximately 0.8 mg/kg/h
clearance ([6]; both, CL): 28.8 mL/min/kg
half-life ([6]; both, terminal half-life): 1.78 ± 1 h
Vd ([6]; female): 1.33 L/kg
concentration at 0 h ([6]; female): 2.86 ± 1.37 ng/mL
clearance ([6]; female, CL): 31.3 mL/min/kg
Vd ([6]; male): 1.62 L/kg
concentration at 0 h ([6]; male): 2.53 ± 1.73 ng/mL
clearance ([6]; male, CL): 27.7 mL/min/kg
clearance ([6]; male, iv): 22.2 mL/min/kg
solubility [7]: soluble only in alcohol
